Assay results from PubChem BioAssay (NCI).
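Cultured in 96-well plates, cells were exposed to test compound for 48 hours across five concentrations. GI50: concentration for 50% inhibition of growth. TGI is the concentration that stops growth completely.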

How the values were obtained:
Experiment in all cases: NCI tumour cell line growth inhibition, 48 h
OVCAR-3 ovarian = test system: OVCAR-3 ovarian
NCI-H522 lung = test system: NCI-H522 lung
DU-145 prostate = test system: DU-145 prostate
NCI-H23 lung = test system: NCI-H23 lung
MDA-MB-435 = test system: MDA-MB-435
A498 renal = test system: A498 renal
CCRF-CEM leukemia = test system: CCRF-CEM leukemia
HT29 colon = test system: HT29 colon
SK-MEL-28 melanoma = test system: SK-MEL-28 melanoma
MCF7 breast = test system: MCF7 breast
IGROV1 ovarian = test system: IGROV1 ovarian
SK-MEL-5 melanoma = test system: SK-MEL-5 melanoma
UACC-62 melanoma = test system: UACC-62 melanoma
HCT-15 colon = test system: HCT-15 colon
HOP-92 NSCLC = test system: HOP-92 NSCLC
CAKI-1 renal = test system: CAKI-1 renal
HL-60(TB) leukemia = test system: HL-60(TB) leukemia
SNB-19 CNS = test system: SNB-19 CNS
MDA-MB-231 breast = test system: MDA-MB-231 breast
SF-295 CNS = test system: SF-295 CNS
SK-MEL-2 melanoma = test system: SK-MEL-2 melanoma
SF-539 CNS = test system: SF-539 CNS
786-0 renal = test system: 786-0 renal
UO-31 renal = test system: UO-31 renal

COc1ccc(NC(=O)Nc2ccccc2CNc2nc(Nc3ccc(OCCN4CCCC4)cc3)ncc2Cl)cc1
GI50 (OVCAR-3 ovarian): 923 nM
TGI (OVCAR-3 ovarian): 1730 nM
GI50 (NCI-H522 lung): 1040 nM
TGI (NCI-H522 lung): 2310 nM
GI50 (DU-145 prostate): 1240 nM
TGI (DU-145 prostate): 3420 nM
GI50 (NCI-H23 lung): 2010 nM
TGI (NCI-H23 lung): 8720 nM
GI50 (MDA-MB-435): 874 nM
TGI (MDA-MB-435): 1610 nM
GI50 (A498 renal): 963 nM
TGI (A498 renal): 3270 nM
GI50 (CCRF-CEM leukemia): 1680 nM
TGI (CCRF-CEM leukemia): > 50000 nM
GI50 (HT29 colon): 1100 nM
TGI (HT29 colon): 2600 nM
GI50 (SK-MEL-28 melanoma): 870 nM
TGI (SK-MEL-28 melanoma): 1620 nM
GI50 (MCF7 breast): 926 nM
TGI (MCF7 breast): 1780 nM
GI50 (IGROV1 ovarian): 894 nM
TGI (IGROV1 ovarian): 1660 nM
GI50 (SK-MEL-5 melanoma): 849 nM
TGI (SK-MEL-5 melanoma): 1550 nM
GI50 (UACC-62 melanoma): 869 nM
TGI (UACC-62 melanoma): 1630 nM
GI50 (HCT-15 colon): 878 nM
TGI (HCT-15 colon): 1760 nM
GI50 (HOP-92 NSCLC): 877 nM
TGI (HOP-92 NSCLC): 2370 nM
GI50 (CAKI-1 renal): 867 nM
TGI (CAKI-1 renal): 1610 nM
GI50 (HL-60(TB) leukemia): 1150 nM
TGI (HL-60(TB) leukemia): 2590 nM
GI50 (SNB-19 CNS): 2140 nM
TGI (SNB-19 CNS): 9200 nM
GI50 (MDA-MB-231 breast): 953 nM
TGI (MDA-MB-231 breast): 1740 nM
GI50 (SF-295 CNS): 853 nM
TGI (SF-295 CNS): 1600 nM
GI50 (SK-MEL-2 melanoma): 1120 nM
TGI (SK-MEL-2 melanoma): 2580 nM
GI50 (SF-539 CNS): 825 nM
TGI (SF-539 CNS): 1540 nM
GI50 (786-0 renal): 882 nM
TGI (786-0 renal): 1640 nM
GI50 (UO-31 renal): 763 nM
